Legend:
[1] = molecular target: Phosphatidylinositol 4,5-bisphosphate 3-kinase catalytic subunit beta isoform (Homo sapiens, UniProt P42338)
[2] = molecular target: T1, Phosphatidylinositol 4,5-bisphosphate 3-kinase catalytic subunit delta isoform (Homo sapiens, UniProt O00329)
T1 sequence (O00329 whole entry): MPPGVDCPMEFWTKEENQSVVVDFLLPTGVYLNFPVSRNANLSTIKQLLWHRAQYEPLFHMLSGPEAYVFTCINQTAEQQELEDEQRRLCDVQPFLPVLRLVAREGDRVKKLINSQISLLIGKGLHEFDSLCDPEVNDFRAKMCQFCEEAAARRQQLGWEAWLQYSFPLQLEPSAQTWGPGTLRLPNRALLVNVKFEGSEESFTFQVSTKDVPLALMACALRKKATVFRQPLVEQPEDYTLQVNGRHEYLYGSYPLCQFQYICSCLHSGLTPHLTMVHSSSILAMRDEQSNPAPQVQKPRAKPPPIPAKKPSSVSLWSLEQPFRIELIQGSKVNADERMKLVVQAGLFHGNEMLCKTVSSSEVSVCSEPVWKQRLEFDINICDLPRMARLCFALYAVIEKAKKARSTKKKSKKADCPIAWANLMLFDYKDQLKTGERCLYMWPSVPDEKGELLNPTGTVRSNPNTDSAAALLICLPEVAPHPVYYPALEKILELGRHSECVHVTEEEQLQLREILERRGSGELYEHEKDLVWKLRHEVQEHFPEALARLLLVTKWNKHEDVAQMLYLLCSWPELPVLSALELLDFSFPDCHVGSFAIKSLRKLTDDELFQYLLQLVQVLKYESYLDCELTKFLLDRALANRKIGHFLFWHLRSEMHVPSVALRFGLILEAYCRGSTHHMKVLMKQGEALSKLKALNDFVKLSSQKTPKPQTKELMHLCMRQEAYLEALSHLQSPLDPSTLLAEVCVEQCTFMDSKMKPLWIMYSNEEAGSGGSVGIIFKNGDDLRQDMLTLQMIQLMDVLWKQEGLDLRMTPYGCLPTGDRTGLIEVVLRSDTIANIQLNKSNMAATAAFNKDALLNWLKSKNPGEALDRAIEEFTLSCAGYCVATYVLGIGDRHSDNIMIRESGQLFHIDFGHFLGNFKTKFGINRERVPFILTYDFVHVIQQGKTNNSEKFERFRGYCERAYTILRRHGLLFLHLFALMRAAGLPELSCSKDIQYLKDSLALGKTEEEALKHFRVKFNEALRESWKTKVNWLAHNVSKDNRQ

[3] = molecular target: Phosphatidylinositol 4,5-bisphosphate 3-kinase catalytic subunit gamma isoform (Homo sapiens, UniProt P48736); assay: Inhibition of PI3Kgamma (unknown origin) by ADP-glo plus luminescence assay
Chain of Phosphatidylinositol 4,5-bisphosphate 3-kinase catalytic subunit gamma isoform (P48736 whole entry, canonical isoform): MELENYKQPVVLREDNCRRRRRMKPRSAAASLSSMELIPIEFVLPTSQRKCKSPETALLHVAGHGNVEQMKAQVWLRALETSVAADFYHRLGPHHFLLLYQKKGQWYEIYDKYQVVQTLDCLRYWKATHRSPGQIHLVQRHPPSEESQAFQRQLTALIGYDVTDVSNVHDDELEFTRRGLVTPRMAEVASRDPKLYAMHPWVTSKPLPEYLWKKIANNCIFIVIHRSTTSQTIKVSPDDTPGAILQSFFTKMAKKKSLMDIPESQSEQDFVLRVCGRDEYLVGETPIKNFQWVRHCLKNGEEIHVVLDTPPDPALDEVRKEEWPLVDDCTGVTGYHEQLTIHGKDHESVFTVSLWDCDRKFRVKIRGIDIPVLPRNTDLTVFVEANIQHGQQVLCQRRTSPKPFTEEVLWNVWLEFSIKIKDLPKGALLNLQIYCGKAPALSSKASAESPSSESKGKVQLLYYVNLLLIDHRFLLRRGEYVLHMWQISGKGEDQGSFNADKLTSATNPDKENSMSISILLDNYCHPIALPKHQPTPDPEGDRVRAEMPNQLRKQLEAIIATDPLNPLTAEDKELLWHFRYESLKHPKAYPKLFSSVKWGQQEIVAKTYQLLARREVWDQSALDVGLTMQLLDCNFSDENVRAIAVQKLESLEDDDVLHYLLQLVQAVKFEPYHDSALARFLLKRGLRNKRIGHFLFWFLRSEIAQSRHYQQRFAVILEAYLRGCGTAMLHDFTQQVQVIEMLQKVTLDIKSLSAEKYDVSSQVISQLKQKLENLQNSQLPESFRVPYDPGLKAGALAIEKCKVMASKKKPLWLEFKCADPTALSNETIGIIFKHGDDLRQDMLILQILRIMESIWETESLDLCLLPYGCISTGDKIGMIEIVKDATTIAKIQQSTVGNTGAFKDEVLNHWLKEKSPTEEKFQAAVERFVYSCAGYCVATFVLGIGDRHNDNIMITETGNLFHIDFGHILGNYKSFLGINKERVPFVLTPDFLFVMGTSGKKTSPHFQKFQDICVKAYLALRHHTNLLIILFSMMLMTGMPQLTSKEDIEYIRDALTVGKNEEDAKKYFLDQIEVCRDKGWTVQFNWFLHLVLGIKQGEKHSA

HCT-116 = assay: Antiproliferative activity against human HCT-116 cells assessed as inhibition of cell growth incubated for 48 hrs by CCK-8 assay; format: functional, cell-based; conditions: HCT-116, 48 h
[4] = molecular target: Serine/threonine-protein kinase mTOR (Homo sapiens, UniProt P42345)
CNE-2 = assay: Antiproliferative activity against human CNE-2 cells assessed as inhibition of cell growth incubated for 48 hrs by CCK-8 assay; format: functional, cell-based; conditions: CNE-2, 48 h
HepG2 = assay: Antiproliferative activity against human HepG2 cells assessed as inhibition of cell growth incubated for 48 hrs by CCK-8 assay; format: functional, cell-based; conditions: HepG2, 48 h
MCF7 [5] = assay: Antiproliferative activity against human MCF7 cells assessed as inhibition of cell growth incubated for 48 hrs by CCK-8 assay; format: functional, cell-based; conditions: MCF7, 48 h
HeLa = assay: Antiproliferative activity against human HeLa cells assessed as inhibition of cell growth incubated for 48 hrs by CCK-8 assay; format: functional, cell-based
MDA-MB-231 = assay: Antiproliferative activity against human MDA-MB-231 cells assessed as inhibition of cell growth incubated for 48 hrs by CCK-8 assay; format: functional, cell-based; conditions: MDA-MB-231, 48 h
[6] = Selectivity index, ratio of IC50 for antiproliferative activity against human L02 cells assessed as inhibition of cell growth to IC50 for antiproliferative activity against human HepG2 cells assessed as inhibition of cell growth; format: toxicity, cell-based; conditions: L02 cells versus HepG2 cells, read-out: Ratio IC50
[7] = Antiproliferative activity against human L02 cells assessed as inhibition of cell growth incubated for 48 hrs by CCK-8 assay; format: toxicity, cell-based
[8] = molecular target: Phosphatidylinositol 4,5-bisphosphate 3-kinase catalytic subunit alpha isoform (Homo sapiens, UniProt P42336); assay: Inhibition of PI3Kalpha (unknown origin) by ADP-glo plus luminescence assay
Chain of Phosphatidylinositol 4,5-bisphosphate 3-kinase catalytic subunit alpha isoform (P42336 whole entry, canonical isoform): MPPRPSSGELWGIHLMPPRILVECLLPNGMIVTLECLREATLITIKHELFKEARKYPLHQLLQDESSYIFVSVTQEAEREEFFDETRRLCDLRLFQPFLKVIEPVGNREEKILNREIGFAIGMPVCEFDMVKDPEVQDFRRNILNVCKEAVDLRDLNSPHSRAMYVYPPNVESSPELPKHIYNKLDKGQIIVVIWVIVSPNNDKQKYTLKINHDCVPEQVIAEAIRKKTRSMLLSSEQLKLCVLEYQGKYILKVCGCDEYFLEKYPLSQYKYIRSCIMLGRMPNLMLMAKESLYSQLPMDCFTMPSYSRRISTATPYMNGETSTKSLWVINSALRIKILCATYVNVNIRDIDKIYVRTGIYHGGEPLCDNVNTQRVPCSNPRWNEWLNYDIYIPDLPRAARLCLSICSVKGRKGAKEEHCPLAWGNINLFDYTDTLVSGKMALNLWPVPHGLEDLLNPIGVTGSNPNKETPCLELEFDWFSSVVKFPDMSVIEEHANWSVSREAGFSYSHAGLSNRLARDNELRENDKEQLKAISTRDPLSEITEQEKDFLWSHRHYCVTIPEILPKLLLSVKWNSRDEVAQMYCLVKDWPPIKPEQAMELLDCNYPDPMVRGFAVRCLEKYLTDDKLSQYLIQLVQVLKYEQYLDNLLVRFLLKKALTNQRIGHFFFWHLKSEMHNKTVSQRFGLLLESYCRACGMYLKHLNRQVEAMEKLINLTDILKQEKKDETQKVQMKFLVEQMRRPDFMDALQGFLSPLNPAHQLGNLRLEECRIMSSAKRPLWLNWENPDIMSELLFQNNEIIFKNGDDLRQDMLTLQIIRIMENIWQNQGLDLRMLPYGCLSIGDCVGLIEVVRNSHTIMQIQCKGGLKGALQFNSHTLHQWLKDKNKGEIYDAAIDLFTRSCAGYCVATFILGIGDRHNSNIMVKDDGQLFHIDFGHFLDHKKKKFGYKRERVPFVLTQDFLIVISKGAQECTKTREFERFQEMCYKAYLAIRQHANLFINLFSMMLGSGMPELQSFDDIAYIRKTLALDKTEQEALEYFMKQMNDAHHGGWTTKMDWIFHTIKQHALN

MCF7 [9] = assay: Induction of apoptosis in human MCF7 cells assessed as late apoptotic cells at 5 uM incubated for 24 hrs Annexin FITC/PI staining based flow cytometry analysis (reference value: 5.84%); format: functional
MCF7 [10] = assay: Induction of apoptosis in human MCF7 cells assessed as necrotic cells at 10 uM incubated for 24 hrs Annexin FITC/PI staining based flow cytometry analysis (reference value: 1.33%); format: functional
MCF7 [11] = assay: Induction of apoptosis in human MCF7 cells assessed as late apoptotic cells at 2.5 uM incubated for 24 hrs Annexin FITC/PI staining based flow cytometry analysis (reference value: 5.84%); format: functional
MCF7 [12] = conditions: dose 20 mg/kg; route iv; time 19 day
MCF7 [13] = assay: Antitumor activity against human MCF7 cells xenografted in BALB/c mouse assessed as tumor size at 20 mg/kg, iv measured every 2 days for 19 days (reference value: 1178 +/- 246mm3); format: functional; conditions: time 19 day
MCF7 [14] = assay: cells; conditions: Homo sapiens, MCF7, 24 h, read-out: Activity
MCF7 [15] = assay: Induction of apoptosis in human MCF7 cells assessed as early apoptotic cells at 5 uM incubated for 24 hrs Annexin FITC/PI staining based flow cytometry analysis (reference value: 0.87%); format: functional
in vivo [16] = conditions: BALB/c, mouse, iv, 5 mg/kg
in vivo [17] = conditions: BALB/c, mouse, iv, 5 mg/kg; remark: listed apart in the source
MCF7 [18] = assay: Induction of apoptosis in human MCF7 cells assessed as necrotic cells at 2.5 uM incubated for 24 hrs Annexin FITC/PI staining based flow cytometry analysis (reference value: 1.33%); format: functional
in vivo [19] = conditions: BALB/c, mouse, iv
MCF7 [20] = assay: cells; conditions: Homo sapiens, MCF7, 24 h, read-out: Activity; remark: listed apart in the source
MCF7 [21] = assay: Induction of apoptosis in human MCF7 cells assessed as late apoptotic cells at 10 uM incubated for 24 hrs Annexin FITC/PI staining based flow cytometry analysis (reference value: 5.84%); format: functional
in vivo [22] = conditions: BALB/c, mouse, iv, 5 mg/kg; remark: listed apart in the source
MCF7 [23] = assay: Induction of apoptosis in human MCF7 cells assessed as necrotic cells at 5 uM incubated for 24 hrs Annexin FITC/PI staining based flow cytometry analysis (reference value: 1.33%); format: functional
in vivo [24] = conditions: BALB/c, mouse, iv, 5 mg/kg; remark: listed apart in the source
MCF7 [25] = conditions: dose 20 mg/kg; route iv; time 19 day; remark: listed apart in the source
MCF7 [26] = assay: Antitumor activity against human MCF7 cells xenografted in BALB/c mouse assessed as tumor growth inhibition at 20 mg/kg, iv administered as lipodisc encapsulated form measured every 2 days for 19 days; format: functional; conditions: MCF7, 456 h, time 19 day, read-out: TGI
in vivo [27] = conditions: BALB/c, mouse, iv, 5 mg/kg; remark: listed apart in the source
MCF7 [28] = assay: Induction of apoptosis in human MCF7 cells assessed as early apoptotic cells at 10 uM incubated for 24 hrs Annexin FITC/PI staining based flow cytometry analysis (reference value: 0.87%); format: functional
in vivo [29] = conditions: BALB/c, mouse, iv, 5 mg/kg; remark: listed apart in the source
in vivo [30] = conditions: BALB/c, mouse, iv, 5 mg/kg; remark: listed apart in the source
MCF7 [31] = assay: Induction of apoptosis in human MCF7 cells assessed as early apoptotic cells at 2.5 uM incubated for 24 hrs Annexin FITC/PI staining based flow cytometry analysis (reference value: 0.87%); format: functional
MCF7 [32] = assay: Antitumor activity against human MCF7 cells xenografted in BALB/c mouse assessed as tumor size at 20 mg/kg, iv administered as lipodisc encapsulated form measured every 2 days for 19 days (reference value: 1178 +/- 246mm3); format: functional; conditions: time 19 day
in vivo [33] = conditions: BALB/c, mouse, iv; remark: listed apart in the source
MCF7 [34] = assay: cells; conditions: Homo sapiens, MCF7, 24 h, read-out: Activity; remark: listed apart in the source
in vivo [35] = conditions: BALB/c, mouse, iv, 5 mg/kg; remark: listed apart in the source
MCF7 [36] = assay: Antitumor activity against human MCF7 cells xenografted in BALB/c mouse assessed as tumor growth inhibition at 20 mg/kg, iv measured every 2 days for 19 days; format: functional; conditions: MCF7, 456 h, time 19 day, read-out: TGI

Chain of Phosphatidylinositol 4,5-bisphosphate 3-kinase catalytic subunit beta isoform (P42338 whole entry, canonical isoform): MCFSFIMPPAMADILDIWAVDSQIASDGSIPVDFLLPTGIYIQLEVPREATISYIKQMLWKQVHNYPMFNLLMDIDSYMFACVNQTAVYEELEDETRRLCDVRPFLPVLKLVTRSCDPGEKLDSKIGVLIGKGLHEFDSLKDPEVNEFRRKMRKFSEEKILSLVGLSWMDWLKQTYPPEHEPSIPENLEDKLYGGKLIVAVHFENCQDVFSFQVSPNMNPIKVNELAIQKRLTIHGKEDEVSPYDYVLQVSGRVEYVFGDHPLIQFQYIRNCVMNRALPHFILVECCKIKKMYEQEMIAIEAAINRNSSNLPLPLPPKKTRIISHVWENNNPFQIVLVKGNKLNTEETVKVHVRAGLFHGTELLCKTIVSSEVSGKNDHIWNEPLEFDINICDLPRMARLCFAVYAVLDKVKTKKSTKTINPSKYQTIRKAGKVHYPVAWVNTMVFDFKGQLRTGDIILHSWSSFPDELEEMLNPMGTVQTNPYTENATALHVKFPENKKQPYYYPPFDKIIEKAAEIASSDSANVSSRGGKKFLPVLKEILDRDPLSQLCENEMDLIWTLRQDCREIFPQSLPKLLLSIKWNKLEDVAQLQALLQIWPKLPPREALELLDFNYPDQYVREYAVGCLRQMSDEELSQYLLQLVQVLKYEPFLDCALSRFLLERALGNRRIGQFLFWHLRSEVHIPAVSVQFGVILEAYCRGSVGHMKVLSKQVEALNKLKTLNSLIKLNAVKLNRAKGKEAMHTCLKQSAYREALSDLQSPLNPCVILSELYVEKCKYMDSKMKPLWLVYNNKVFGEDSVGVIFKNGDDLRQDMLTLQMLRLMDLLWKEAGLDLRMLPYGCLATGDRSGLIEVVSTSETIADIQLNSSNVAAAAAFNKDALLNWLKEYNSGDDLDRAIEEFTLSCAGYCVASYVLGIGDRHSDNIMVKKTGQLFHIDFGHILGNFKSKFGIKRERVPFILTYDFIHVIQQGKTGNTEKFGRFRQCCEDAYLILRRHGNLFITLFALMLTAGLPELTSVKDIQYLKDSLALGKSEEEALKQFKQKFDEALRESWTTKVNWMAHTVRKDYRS

## O=C(Nc1ccc(-c2nc(N3CCOCC3)nc(N3CCOCC3)n2)cc1)Nc1ccc2c(c1)CNC2=O
[1]
  IC50: 162 nM
[2]
  IC50: 98.3 nM
[3]
  IC50: 25.5 nM

## O=C(Nc1ccc(-c2nc(N3CCOCC3)nc(N3C4CCC3CNC4)n2)cc1)Nc1ccc2c(c1)COC2=O
HCT-116
  IC50: 770 nM
[4]
  IC50: 20 nM
CNE-2
  IC50: 2270 nM
HepG2
  IC50: > 100000 nM
MCF7 [5]
  IC50: 1130 nM
HeLa
  IC50: 12600 nM
MDA-MB-231
  IC50: 11900 nM

## C[C@H]1COCCN1c1nc(-c2ccc(NC(=O)Nc3ccc4c(c3)COC4=O)cc2)nc(N2C3CCC2COC3)n1
HCT-116
  IC50: 5050 nM
[4]
  IC50: 4 nM
CNE-2
  IC50: 1080 nM
HepG2
  IC50: 5670 nM
MCF7 [5]
  IC50: 1740 nM
HeLa
  IC50: 6030 nM
MDA-MB-231
  IC50: 3440 nM

## O=C(Nc1ccc(-c2nc(N3CCOCC3)nc(N3CC4CCC(C3)O4)n2)cc1)Nc1ccc2c(c1)COC2=O
[4]
  IC50: 4.6 nM

## O=C(Nc1ccc(-c2nc(N3CCOCC3)nc(N3CCOCC3)n2)cc1)Nc1ccc2c(c1)COC2=O
[1]
  IC50: 129 nM
[2]
  IC50: 248 nM
[3]
  IC50: 162 nM

## O=C(Nc1ccc(-c2nc(N3CCOCC3)nc(N3C4CCC3COC4)n2)cc1)Nc1ccc2c(c1)COC2=O
[1]
  IC50: 782 nM
HCT-116
  IC50: 732 nM
[4]
  IC50: 1.7 nM
[6]
  selectivity ratio: 35.3
CNE-2
  IC50: 230 nM
HepG2
  IC50: 130 nM
[2]
  IC50: 1830 nM
MCF7 [5]
  IC50: 890 nM
HeLa
  IC50: 2150 nM
MDA-MB-231
  IC50: 4430 nM
[7]
  IC50 at 48 h: 4590 nM
[8]
  IC50: 354 nM
[3]
  IC50: 1940 nM

## CN(C)C1CCN(C(=O)c2ccc(NC(=O)Nc3ccc(-c4nc(N5CCOCC5)nc(N5CCOCC5)n4)cc3)cc2)CC1 [GEDATOLISIB]
MCF7 [9]
  Activity: 8.41%
MCF7 [10]
  Activity: 1.77%
MCF7 [11]
  Activity: 7.35%
MCF7 [12]
  T/C: 44.1%
MCF7 [13]
  Activity: 591 mm3
MCF7 [14]
  viability at 10 µM: 85.5%
MCF7 [15]
  Activity: 0.64%
In vivo [16]
  AUC(0-inf) at 12 h: 32100 ng·h/mL
In vivo [17]
  AUC(0-t) at 12 h: 5280 ng·h/mL
MCF7 [18]
  Activity: 1.59%
In vivo [19]
  MTD at […]: 20 mg/kg
MCF7 [20]
  viability at 5 µM: 89%
MCF7 [21]
  Activity: 11.9%
In vivo [22]
  AUC(0-t) at 12 h: 31500 ng·h/mL
MCF7 [23]
  Activity: 1.95%
In vivo [24]
  Cmax at 12 h: 10700 ng/mL
MCF7 [25]
  T/C: 46.7%
MCF7 [26]
  inhibition in vivo at 20 mg/kg: 55.9%
In vivo [27]
  AUC(0-inf) at 12 h: 5640 ng·h/mL
MCF7 [28]
  Activity: 0.82%
In vivo [29]
  half-life at 12 h: 1.3 h
In vivo [30]
  Cmax at 12 h: 44000 ng/mL
MCF7 [31]
  Activity: 0.68%
MCF7 [32]
  Activity: 559 mm3
In vivo [33]
  MTD at […]: 30 mg/kg
MCF7 [34]
  viability at 2.5 µM: 90.4%
In vivo [35]
  half-life at 12 h: 7.4 h
MCF7 [36]
  inhibition in vivo at 20 mg/kg: 53.3%

Source: ChEMBL document CHEMBL5543164 (J Med Chem, 2024)
